Tests used:
succinate dehydrogenase = biological target: T1, succinate dehydrogenase (Botrytis cinerea, UniProt A0A384J5E4+A0A384J8V8+A0A384JHJ5); test: Enzyme inhibition: succinate dehydrogenase activity in Botrytis cinerea mitochondria (DCPIP reduction); assay type: biochemical; settings: concentration required to inhibit the rate of DCPIP reduction by 50%; Botrytis cinerea isolate Nick mitochondria; read-out: I50 (μM conc.)
T1 construct: succinate-DCPIP reductase assay with KCN
Experimental: Mitochondria were isolated by a method adapted from G.A. White [Biochem. Biophys. Res. Commun. 44: 1212, 1971]. Twenty to thirty grams of Botrytis cinerea isolate Nick were resuspended in 250 mL 0.25M sucrose, 5mM Na4 EDTA, pH 7.0 (+) 0.15% (w/v) bovine serum albumin (BSA) and placed in a Bead Beater chamber (Biospec Products, Bartlesville, Ok.). Zirconium oxide beads (0.5mm) were added to finish filling the chamber. Four 30 second beats separated by 2 minute temperature equilibration periods in the cold were used to break the mycelia. A crude mitochondrial preparation was harvested from the homogenate by differential centrifugation at 4° C. and resuspended in BSA-free sucrose/EDTA media and used for SDH assays.
The succinate dehydrogenase activity was measured at 600 nm in 50 mM potassium phosphate, pH 7.2, 1 mM KCN, 45 μM 2,6-dichlorophenolindophenol (DCPIP) and 17 mM disodium succinate (final volume, 1 mL) with a Perkin-Elmer Lambda 7 ultraviolet-visible spectrophotometer. The test compounds were added as acetone solutions (final concentration of acetone, 1% (v/v)). The mitochondrial preparatons were used to initiate the reaction. All rates were corrected for endogenous activities minus succinate. Semilog plots of percentage inhibition versus test compound concentration were used to determine inhibition expressed as I50 (μM) which is the concentration required to inhibit the rate of DCPIP reduction by 50%. The commercial fungicide carboxin was used as standard throughout.

Botrytis cinerea [1] = test: Eggplant grey mold; assay type: in vivo; parameters: scale not given here; settings: inoculated 24 h later, rated after 3-4 days; for Disease Control Rating at 20 ppm: eggplant sprayed with 20 ppm; for Disease Control Rating at 100 ppm: eggplant sprayed with 100 ppm; for Disease Control Rating at 500 ppm: eggplant sprayed with 500 ppm
Experimental: Eggplant seed are planted in 2.25" square pots, six per pot, and maintained in growth chambers set at 23° C., 80% humidity, and 12 h photoperiod. When the plants are at the cotyledon stage (14-18 days afterplanting), the plants are sprayed with 1.5 mL/pot of 500, 100 or 20 ppm 2:3 acetone:water (with 0.5% Tween® 20) formulations of the test compounds.
Twenty-four hours later the plants are inoculated with Botrytis cinerea, approximately 0.5 mL/pot of a 4×10^6 spore/mL suspension. The plantes are incubated at 23° C. and 100% humidity for 3-4 days, at which time disease control ratings are made based on presence and severity of Botrytis lesions.

Rhizoctonia solani = test: Rice sheath blight; assay type: in vivo; parameters: scale not given here; settings: inoculated two days later, rated after 7 days, average of five plants; for Disease Control Rating at 0.5 mg/mL: foliage and soil sprayed with 0.5 mg/mL; for Disease Control Rating at 0.02 mg/mL: foliage and soil sprayed with 0.02 mg/mL; for Disease Control Rating at 0.1 mg/mL: foliage and soil sprayed with 0.1 mg/mL
Experimental: Rice plants, 11 to 15 days old, are grown in 7.65 cm^2 pots. Each plant in the treatment groups is treated by spraying both the foliage and the soil surface, each with 2 mL of a water/acetone/Tween®20 formulation containing 0.5, 0.1, or 0.02 mg/mL of Compound A. The pots are placed in flood trays which are filled with water to just below the soil line. Two days later, approximately two grams of Rhizoctonia solani inoculum, cultured on rice grain for four to eight weeks, is applied to the base of the rice plants in each pot. After 7 days in a 25° C. high humidity growth chamber, each plant is evaluated for the level of disease contro as compared to untreated controls by the following scale and the average of five plants per treatment level is calculated.

Botrytis cinerea [2] = test: Vine grey mold (grape berries); assay type: in vivo; settings: average of six berries, 7-10 days; for pest or weed control at 50 ppm: grape berries treated with 50 ppm, read-out: % DISEASE CONTROL 50 ppm; for pest or weed control at 200 ppm: grape berries treated with 200 ppm, read-out: % DISEASE CONTROL 200 ppm
Experimental: Grape berries, which have been washed and surfaced sterilized in 70% ethanol for one minute, are, except for the negative controls, treated with 0.2 mL of a 2:3 acetone/water formulation (containing 0.05% Tween® 20) of 200 or 50 ppm of the test compounds and placed one per well in 12-well plates. Six berries per treatment level are used. Twenty-four hours later each berry is inoculated with Botrytis cinerea conidia, 0.2 mL of 10^6 spores/mL suspension. The plates are incubated at 20° C. with a 12 hours photoperiod for 7-10 days and the percent surface area infected with the disease is determined for each replicate using the values of 0, 1, 2, 5, 7, 10, 15, 20, 25, 30, 35, 40, 45, 50, 55, 60, 65, 70, 75, 80, 85, 90, 95, and 100%. Treatment means are calculated and percent disease control is determined by the formula [(control mean - treatment mean)/control means]×100.
Some of the compounds have been tested more than once and the results shown are the average of the number of tests reported.

T1 sequence (A0A384J5E4 1-300): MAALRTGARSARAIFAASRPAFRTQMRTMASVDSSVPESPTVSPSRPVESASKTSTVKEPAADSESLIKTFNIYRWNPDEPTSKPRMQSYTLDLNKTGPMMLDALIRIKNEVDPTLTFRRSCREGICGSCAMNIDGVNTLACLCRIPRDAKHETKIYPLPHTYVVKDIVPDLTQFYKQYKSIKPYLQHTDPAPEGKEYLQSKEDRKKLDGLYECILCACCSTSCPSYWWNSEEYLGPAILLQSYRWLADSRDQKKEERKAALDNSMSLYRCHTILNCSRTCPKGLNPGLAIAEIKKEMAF
T1 sequence (A0A384J8V8 1-189): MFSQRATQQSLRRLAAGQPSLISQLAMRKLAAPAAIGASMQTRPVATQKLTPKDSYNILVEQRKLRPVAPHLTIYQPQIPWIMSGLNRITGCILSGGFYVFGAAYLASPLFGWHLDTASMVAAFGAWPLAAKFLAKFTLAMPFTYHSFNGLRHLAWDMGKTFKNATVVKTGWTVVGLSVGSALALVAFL
T1 sequence (A0A384JHJ5 1-192): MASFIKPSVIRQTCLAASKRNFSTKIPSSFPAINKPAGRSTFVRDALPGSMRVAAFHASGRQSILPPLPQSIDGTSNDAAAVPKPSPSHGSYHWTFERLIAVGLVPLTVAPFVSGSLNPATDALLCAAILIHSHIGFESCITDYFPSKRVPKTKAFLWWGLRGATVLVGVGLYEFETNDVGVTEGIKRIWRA
T1 sequence (A0A384K456 1-647 partner): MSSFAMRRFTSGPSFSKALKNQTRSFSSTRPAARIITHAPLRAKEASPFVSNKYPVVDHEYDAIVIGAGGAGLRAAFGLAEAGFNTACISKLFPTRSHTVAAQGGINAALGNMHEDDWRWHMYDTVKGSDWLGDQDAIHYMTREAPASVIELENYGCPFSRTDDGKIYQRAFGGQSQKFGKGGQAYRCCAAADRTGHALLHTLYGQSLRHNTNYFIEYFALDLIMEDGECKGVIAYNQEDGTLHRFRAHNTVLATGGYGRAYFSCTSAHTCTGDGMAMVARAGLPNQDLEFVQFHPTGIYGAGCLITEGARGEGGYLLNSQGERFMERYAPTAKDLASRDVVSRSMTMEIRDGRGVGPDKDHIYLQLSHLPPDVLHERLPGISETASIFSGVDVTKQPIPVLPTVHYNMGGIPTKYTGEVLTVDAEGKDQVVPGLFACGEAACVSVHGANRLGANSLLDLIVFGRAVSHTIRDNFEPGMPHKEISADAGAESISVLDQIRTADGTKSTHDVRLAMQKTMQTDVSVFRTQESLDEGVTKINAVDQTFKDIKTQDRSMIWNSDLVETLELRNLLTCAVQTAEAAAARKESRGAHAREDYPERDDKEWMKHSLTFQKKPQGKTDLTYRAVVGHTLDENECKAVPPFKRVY

Structure (SMILES)	IC50 (succinate dehydrogenase)	Disease Control Rating at 20 ppm (Botrytis cinerea [1])	Disease Control Rating at 100 ppm (Botrytis cinerea [1])	Disease Control Rating at 500 ppm (Botrytis cinerea [1])	Disease Control Rating at 0.5 mg/mL (Rhizoctonia solani)	pest or weed control at 50 ppm (Botrytis cinerea [2])	pest or weed control at 200 ppm (Botrytis cinerea [2])	Disease Control Rating at 0.02 mg/mL (Rhizoctonia solani)	Disease Control Rating at 0.1 mg/mL (Rhizoctonia solani)
Cn1cc(C(=O)Nc2ccccc2C=C2CCCCCC2)c(C(F)(F)F)n1 [Example 143, 1H-pyrazole-4-carboxamide, N-[2-(cycloheptylidenemethyl)phenyl]-1-methyl-3-(trifluoromethyl)-]	0.025 µM	0	0	0	3	33%	36%		
O=C(Nc1ccccc1C1CCCCC1)c1c[nH]nc1C(F)F [Example 15, 1H-pyrazole-4-carboxamide, N-(2-cyclohexylphenyl)-3-(difluoromethyl)-]	0.014 µM	2	3	2	0	36%	89%		
Cn1cc(C(=O)Nc2ccccc2C2CCCCC2)c(I)n1 [Example 56, 1H-pyrazole-4-carboxamide, N-[2-(cyclohexyl)phenyl]-3-iodo-1-methyl-]	0.013 µM			0	0	46%	70%		
Cc1ccc(C2CCCCC2)c(NC(=O)c2cn(C)nc2C(F)F)c1 [Example 21, 1H-pyrazole-4-carboxamide, N-(2-cyclohexyl-5-methylphenyl)-3-(difluoromethyl)-1-methyl-]	0.019 µM	1	2	2	1	40%	34%		
CC(C)C1CCCC=C1c1ccccc1NC(=O)c1cn(C)nc1C(F)(F)F (stereo not shown) [Example 131, 1H-pyrazole-4-carboxamide, 1-methyl-N-[2-[6-(1-methylethyl)-1-cyclohexen-1-yl]phenyl]-3-(trifluoromethyl)-]	0.19 µM	0	0	0	2	7%	0%		
Cn1cc(C(=O)Nc2ccccc2O[C@H]2CC[C@H](C)CC2)c(C(F)(F)F)n1 [Example 73, 1H-pyrazole-4-carboxamide, 1-methyl-N-[2-[(4-methylcyclohexyl)oxy]phenyl]-3-(trifluoromethyl)-, trans-]	0.0076 µM			0	2	8%	0%		
Cn1cc(C(=O)Nc2ccccc2C2=CCCCCC2)c(C(F)(F)F)n1 [Example 112, 1H-pyrazole-4-carboxamide, N-[2-(1-cyclohepten-1-yl)phenyl]-1-methyl-3-(trifluoromethyl)-]	0.0021 µM	2	3	3	0	88%	95%		
Cn1cc(C(=O)Nc2ccccc2C2CCCCC2)c(Cl)n1 [Example 50, 1H-pyrazole-4-carboxamide, 3-chloro-N-(2-cyclohexylphenyl)-1-methyl-]	0.098 µM			0	2	8%	22%	0	0
Cn1cc(C(=O)Nc2ccccc2C2CCCCCC2)c(OC(F)F)n1 [Example 60]	0.35 µM			0	0	0%	0%		
Cn1cc(C(=O)Nc2ccccc2[C@@H]2C[C@H]3CC[C@@H]2C3)c(Cl)n1 (relative stereo) [Example 52, 1H-pyrazole-4-carboxamide, N-(2-bicyclo[2.2.1]hept-2-ylphenyl)-3-chloro-1-methyl-, exo-]	0.049 µM			0	2	19%	30%	0	2
Cc1c(C(=O)Nc2ccccc2C2CCCCCC2)c(Cl)nn1C [Example 105, 1H-py-razole-4-carboxamide, 3-chloro-N-(2-cycloheptylphenyl)-1,5-dimethyl-]	0.26 µM	0	0	1	0	6%	0%		
Cn1cc(C(=O)Nc2ccccc2C2CCCCC2)c(C(F)(F)F)n1 [Example 2, 1H-pyrazole-4-carboxamide, N-(2-cyclohexylphenyl)-1-methyl-3-(trifluoromethyl)-]	0.012 µM	1	3	3	3	84%	87%	3	3
Cn1cc(C(=O)Nc2ccccc2C2=CCCCC2)c(C(F)(F)F)n1 [Example 110, 1H-pyrazole-4-carboxamide, N-[2-(1-cyclohexen-1-yl)phenyl]-1-methyl-3-(trifluoromethyl)-]	0.019 µM	1	2	2	3	97%	100%	0	0
CCC1CC=C(c2ccccc2NC(=O)c2cn(C)nc2C(F)F)CC1 (stereo not shown) [Example 125, 1H-pyrazole-4-carboxamide, 3-(difluoromethyl)-N-[2-(4-ethyl-1-cyclohexen-1-yl)phenyl]-1-methyl-]	0.005 µM	2	1	2	3	88%	93%	2	2
Cn1cc(C(=O)Nc2ccccc2[C@@H]2C[C@H]3CC[C@@H]2C3)c(C(F)(F)Cl)n1 (relative stereo) [Example 91, 1H-pyrazole-4-carboxamide, N-[2-bicyclo[2.2.1]hept-2-ylphenyl]-3-(chlorodifluoromethyl)-1-methyl-, exo-]	0.078 µM			0	0	0%	14%		

From patent US5223526A, “Pyrazole carboxanilide fungicides and use” (Monsanto Company, priority 1992, dated 1993)
